In patent publication US20100113613A1, “CYCLOHEXANE POLYALCOHOL FORMULATION FOR TREATMENT OF DISORDERS OF PROTEIN AGGREGATION” (WARATAH PHARMACEUTICALS, priority 2006, published 2010):
Like-named read-outs stand apart in the source and are kept apart here.

Assays:
in vivo [1] = details: rat, po, 150 mg/kg
Procedure: Three studies were performed to investigate the pharmacokinetics of oral administration of a scyllo-cyclohexanehexyl (Table 1):
Plasma pharmacokinetics (PK) of a scyllo-cyclohexanehexyl in rats was assessed after single oral doses of 15, 50 and 150 mg/kg. After single oral doses in rats, maximum plasma concentration (Cmax) and exposure (AUC0-t) values increased proportionally with dose level of the scyllo-cyclohexanehexyl. Other parameters were unchanged with dose level. The scyllo-cyclohexanehexyl was absorbed rapidly, with mean tmax observed between 1.0 and 2.2 hours post-dose. […] Estimates of mean residence time (MRT) were consistent. Volumes of distribution (Vdss) were large, indicating wide distribution of scyllo-cyclohexanehexyl in rats.

[2] = CSF and plasma levels at end of 14 day repeat dose study in dogs; assay type: in vivo, dog; details: dog, oral, after 14 days dosing; for concentration at 24 h: CSF, read-out: CSF level at 24 h; for concentration at 12 h: plasma, read-out: Plasma level at 12 h
Procedure: CSF was also collected from dogs at the end of the 14 day repeat study upon necropsy (approximately 24 hours after the final dose was administered). Levels of the scyllo-cyclohexanehexyl in CSF increased with dose and followed the profile observed in plasma.

in vivo [3] = details: rat; for kel / Vd: 28 days
Procedure: Plasma PK of a scyllo-cyclohexanehexyl compound in rats was assessed after 28 days oral dosing of 15, 50 and 150 mg/kg, administered twice daily. […] Indeed, at this dose level, the Vdss, clearance and elimination rates appeared to be reduced with repeated dosing. […] As for single doses, the scyllo-cyclohexanehexyl was absorbed rapidly, with mean tmax observed between 1.2 and 1.3 hours post-dose. […] Estimates of MRT were consistent.

in vivo [4] = details: dog; for AUC(0-inf) / AUC(0-t) / CL/F / Cmax / MRT / Tmax / VdSS / half-life: po
Procedure: Plasma PK of a scyllo-cyclohexanhexyl in dogs was assessed after 14 days oral dosing of 15, 50 and 150 mg/kg, administered twice daily. As on Day 1 of this study Cmax and AUC values increased proportionally with dose level of scyllo-cyclohexanehexyl. However, dose-normalised exposures appeared to decrease with dose. This contrasts with positive trend observed after acute exposure. […] As for single doses, the scyllo-cyclohexanehexyl was absorbed rapidly, with tmax observed between 1.1 and 1.8 hours post-dose. […] Estimates of MRT were consistent. The Vdss and Cl/F values were similar for all dose levels.

[5] = Brain penetrance: plasma and CSF pharmacokinetics after single oral doses in dogs; assay type: in vivo, dog; details: dog
From the text: CSF bathes the central nervous system and sits on the inside of the blood brain barrier. Although a centrally-acting drug will still need to penetrate brain tissue to exert an effect, quantification of drug in CSF may provide a gross estimate of brain-penetrance.

[6] = CSF, single oral dose 240 mg/kg
[7] = PLASMA LEVELS, single oral dose 20 mg/kg
[8] = PLASMA LEVELS, single oral dose 80 mg/kg
[9] = PLASMA LEVELS, single oral dose 240 mg/kg

With `OC1C(O)C(O)C(O)C(O)C1O` (centres unmarked) [AZD-103, scyllo-inositol] as the compound, how does the Cmax (in vivo [1]) read?
The Cmax was 131000 ± 54800 ng/mL.

What about the MRT (in vivo [1]) of the same compound?
The MRT was 3.9 ± 0.7 h.

And the Tmax (in vivo [1])?
The Tmax was 2.2 ± 1.5 h.

And the Vd (in vivo [1])?
Its Vd is 2.24 L/kg.

And the half-life (in vivo [1])?
Its half-life is 2.1 ± 0.2 h.

And the kel (in vivo [1])?
The kel was 0.33 ± 0.03 h⁻¹.

What about the concentration at 24 h ([2]; Dose 30 mg/kg) of the same compound?
Its concentration at 24 h is 4000 ng/mL.

And the concentration at 24 h ([2]; Dose 100 mg/kg)?
Its concentration at 24 h is 7500 ng/mL.

What about the concentration at 24 h ([2]; Dose 300 mg/kg) of the same compound?
Its concentration at 24 h is 10900 ng/mL.

And the concentration at 12 h ([2]; Dose 30 mg/kg)?
Its concentration at 12 h is 3600 ng/mL.

And the concentration at 12 h ([2]; Dose 100 mg/kg)?
The concentration at 12 h was 5800 ng/mL.

What about the concentration at 12 h ([2]; Dose 300 mg/kg) of the same compound?
Its concentration at 12 h is 8200 ng/mL.

And the kel (in vivo [3]; 15 mg/kg)?
The kel was 0.16 ± 0.03 h⁻¹.

And the kel (in vivo [3]; 50 mg/kg)?
The kel was 0.21 ± 0.03 h⁻¹.

What about the kel (in vivo [3]; 150 mg/kg) of the same compound?
Its kel is 0.22 ± 0.02 h⁻¹.

What about the AUC(0-inf) (in vivo [3]; po, 15 mg/kg) of the same compound?
The AUC(0-inf) was 195 ± 71.7 µg·h/mL.

What about the AUC(0-t) (in vivo [3]; po, 15 mg/kg) of the same compound?
Its AUC(0-t) is 161 ± 57.7 µg·h/mL.

And the CL/F at 28 days (in vivo [3]; po, 15 mg/kg)?
The CL/F at 28 days was 2.9 mL/min/kg.

And the Cmax at 28 days (in vivo [3]; po, 15 mg/kg)?
The Cmax at 28 days was 28500 ± 4900 ng/mL.

What about the MRT at 28 days (in vivo [3]; po, 15 mg/kg) of the same compound?
The MRT at 28 days was 6.7 ± 0.6 h.

And the Tmax (in vivo [3]; po, 15 mg/kg)?
The Tmax was 1.3 ± 0.5 h.

And the half-life at 28 days (in vivo [3]; po, 15 mg/kg)?
Its half-life at 28 days is 4.4 ± 0.6 h.

What about the Vd (in vivo [3]; po, 15 mg/kg) of the same compound?
Its Vd is 1.14 L/kg.

And the AUC(0-inf) (in vivo [3]; po, 50 mg/kg)?
Its AUC(0-inf) is 298 ± 82.2 µg·h/mL.

What about the AUC(0-t) (in vivo [3]; po, 50 mg/kg) of the same compound?
The AUC(0-t) was 271 ± 70.7 µg·h/mL.

And the CL/F at 28 days (in vivo [3]; po, 50 mg/kg)?
Its CL/F at 28 days is 5.95 mL/min/kg.

What about the Cmax at 28 days (in vivo [3]; po, 50 mg/kg) of the same compound?
The Cmax at 28 days was 59400 ± 8400 ng/mL.

What about the MRT at 28 days (in vivo [3]; po, 50 mg/kg) of the same compound?
The MRT at 28 days was 4.9 ± 0.8 h.

What about the Tmax (in vivo [3]; po, 50 mg/kg) of the same compound?
Its Tmax is 1.2 ± 0.4 h.

And the half-life at 28 days (in vivo [3]; po, 50 mg/kg)?
Its half-life at 28 days is 3.3 ± 0.5 h.

And the Vd (in vivo [3]; po, 50 mg/kg)?
The Vd was 1.73 L/kg.

And the AUC(0-inf) (in vivo [3]; po, 150 mg/kg)?
The AUC(0-inf) was 615 ± 129 µg·h/mL.

And the AUC(0-t) (in vivo [3]; po, 150 mg/kg)?
The AUC(0-t) was 573 ± 128 µg·h/mL.

What about the CL/F at 28 days (in vivo [3]; po, 150 mg/kg) of the same compound?
The CL/F at 28 days was 8.41 mL/min/kg.

And the Cmax (in vivo [3]; po, 150 mg/kg)?
The Cmax was 171000 ± 79900 ng/mL.

And the MRT at 28 days (in vivo [3]; po, 150 mg/kg)?
Its MRT at 28 days is 4.6 ± 0.8 h.

And the Tmax (in vivo [3]; po, 150 mg/kg)?
The Tmax was 1.2 ± 0.4 h.

What about the half-life at 28 days (in vivo [3]; po, 150 mg/kg) of the same compound?
The half-life at 28 days was 3.1 ± 0.3 h.

What about the Vd (in vivo [3]; po, 150 mg/kg) of the same compound?
The Vd was 2.34 L/kg.

What about the kel (in vivo [4]; 15 mg/kg) of the same compound?
Its kel is 0.2 ± 0.08 h⁻¹.

And the kel (in vivo [4]; 50 mg/kg)?
The kel was 0.2 ± 0.1 h⁻¹.

And the kel (in vivo [4]; 150 mg/kg)?
The kel was 0.3 ± 0.04 h⁻¹.

And the AUC(0-inf) (in vivo [4]; 15 mg/kg)?
Its AUC(0-inf) is 95.2 ± 18.6 µg·h/mL.

What about the AUC(0-t) (in vivo [4]; 15 mg/kg) of the same compound?
Its AUC(0-t) is 75.2 ± 9.4 µg·h/mL.

And the CL/F (in vivo [4]; 15 mg/kg)?
The CL/F was 0.698 mL/min/kg.

What about the Cmax (in vivo [4]; 15 mg/kg) of the same compound?
The Cmax was 16400 ± 4500 ng/mL.

And the MRT (in vivo [4]; 15 mg/kg)?
Its MRT is 7.4 ± 1.5 h.

What about the Tmax (in vivo [4]; 15 mg/kg) of the same compound?
Its Tmax is 1.7 ± 0.5 h.

And the VdSS (in vivo [4]; 15 mg/kg)?
The VdSS was 0.3017 ± 0.0419 L/kg.

What about the half-life (in vivo [4]; 15 mg/kg) of the same compound?
Its half-life is 4.7 ± 2 h.

What about the AUC(0-inf) (in vivo [4]; 50 mg/kg) of the same compound?
The AUC(0-inf) was 262 ± 52.4 µg·h/mL.

And the AUC(0-t) (in vivo [4]; 50 mg/kg)?
Its AUC(0-t) is 232 ± 50.2 µg·h/mL.

And the CL/F (in vivo [4]; 50 mg/kg)?
The CL/F was 0.86 mL/min/kg.

What about the Cmax (in vivo [4]; 50 mg/kg) of the same compound?
Its Cmax is 59400 ± 13000 ng/mL.

What about the MRT (in vivo [4]; 50 mg/kg) of the same compound?
The MRT was 5.3 ± 1.2 h.

What about the Tmax (in vivo [4]; 50 mg/kg) of the same compound?
The Tmax was 1.1 ± 0.5 h.

What about the VdSS (in vivo [4]; 50 mg/kg) of the same compound?
Its VdSS is 0.2726 ± 0.1217 L/kg.

What about the half-life (in vivo [4]; 50 mg/kg) of the same compound?
Its half-life is 3.8 ± 1.2 h.

What about the AUC(0-inf) (in vivo [4]; 150 mg/kg) of the same compound?
Its AUC(0-inf) is 557 ± 133 µg·h/mL.

What about the AUC(0-t) (in vivo [4]; 150 mg/kg) of the same compound?
The AUC(0-t) was 523 ± 123 µg·h/mL.

And the CL/F (in vivo [4]; 150 mg/kg)?
The CL/F was 1.2 mL/min/kg.

What about the Cmax (in vivo [4]; 150 mg/kg) of the same compound?
The Cmax was 121000 ± 26700 ng/mL.

What about the MRT (in vivo [4]; 150 mg/kg) of the same compound?
Its MRT is 4.6 ± 0.4 h.

What about the Tmax (in vivo [4]; 150 mg/kg) of the same compound?
The Tmax was 1.8 ± 0.4 h.

What about the VdSS (in vivo [4]; 150 mg/kg) of the same compound?
Its VdSS is 0.3321 ± 0.0881 L/kg.

What about the half-life (in vivo [4]; 150 mg/kg) of the same compound?
Its half-life is 2.9 ± 0.6 h.

And the AUC(0-inf) ([5]; CSF, single oral dose 20 mg/kg)?
The AUC(0-inf) was 38 ± 22.8 µg·h/mL.

And the AUC(0-t) ([5]; CSF, single oral dose 20 mg/kg)?
The AUC(0-t) was 20.6 ± 6.6 µg·h/mL.

And the Cmax ([5]; CSF, single oral dose 20 mg/kg)?
The Cmax was 2300 ± 1400 ng/mL.

What about the Tmax ([5]; CSF, single oral dose 20 mg/kg) of the same compound?
The Tmax was 4 ± 1.7 h.

What about the AUC(0-inf) ([5]; CSF, single oral dose 80 mg/kg) of the same compound?
Its AUC(0-inf) is 103 ± 13.1 µg·h/mL.

And the AUC(0-t) ([5]; CSF, single oral dose 80 mg/kg)?
The AUC(0-t) was 98 ± 13.2 µg·h/mL.

What about the Cmax ([5]; CSF, single oral dose 80 mg/kg) of the same compound?
The Cmax was 18700 ± 1000 ng/mL.

What about the Tmax ([5]; CSF, single oral dose 80 mg/kg) of the same compound?
Its Tmax is 2.8 ± 1.5 h.

What about the AUC(0-inf) [5, 6] of the same compound?
Its AUC(0-inf) is 401 ± 204 µg·h/mL.

And the AUC(0-t) [5, 6]?
Its AUC(0-t) is 384 ± 204 µg·h/mL.

And the Cmax [5, 6]?
Its Cmax is 67400 ± 28600 ng/mL.

What about the Tmax [5, 6] of the same compound?
Its Tmax is 3 ± 1.7 h.

And the AUC(0-inf) [5, 7]?
The AUC(0-inf) was 52.7 ± 17.9 µg·h/mL.

And the AUC(0-t) [5, 7]?
The AUC(0-t) was 42.6 ± 9.6 µg·h/mL.

What about the Cmax [5, 7] of the same compound?
Its Cmax is 6100 ± 3600 ng/mL.

And the Tmax [5, 7]?
Its Tmax is 2.8 ± 2.2 h.

What about the AUC(0-inf) [5, 8] of the same compound?
Its AUC(0-inf) is 255 ± 58.6 µg·h/mL.

What about the AUC(0-t) [5, 8] of the same compound?
Its AUC(0-t) is 250 ± 59.3 µg·h/mL.

What about the Tmax [5, 8] of the same compound?
The Tmax was 2.3 ± 1.3 h.

What about the AUC(0-inf) [5, 9] of the same compound?
The AUC(0-inf) was 528 ± 74.6 µg·h/mL.

And the AUC(0-t) [5, 9]?
Its AUC(0-t) is 514.5 ± 0.3 µg·h/mL.

What about the Cmax [5, 9] of the same compound?
Its Cmax is 101000 ± 17800 ng/mL.

What about the Tmax [5, 9] of the same compound?
The Tmax was 2.3 ± 1.5 h.
